Laboratory results from US20090123979A1, “Methods of reducing the inhibitory effect of a tannin on the enzymatic hydrolysis of cellulosic material” (Novozymes, Inc., priority 2007, published 2009).
Read-outs that look alike come from different tables or passages of the source.

Assays:
[1] = biological target: T1, Trichoderma reesei CEL7B endoglucanase I (Trichoderma reesei, UniProt P07981); test: CMC hydrolysis by CEL7B endoglucanase I with tannic acid; format: biochemical; details: 1 mM tannic acid, 50° C., 4 hours
T1 construct: made in house; host or cells: Aspergillus oryzae JaL250
T1 sequence (P07981 23-459): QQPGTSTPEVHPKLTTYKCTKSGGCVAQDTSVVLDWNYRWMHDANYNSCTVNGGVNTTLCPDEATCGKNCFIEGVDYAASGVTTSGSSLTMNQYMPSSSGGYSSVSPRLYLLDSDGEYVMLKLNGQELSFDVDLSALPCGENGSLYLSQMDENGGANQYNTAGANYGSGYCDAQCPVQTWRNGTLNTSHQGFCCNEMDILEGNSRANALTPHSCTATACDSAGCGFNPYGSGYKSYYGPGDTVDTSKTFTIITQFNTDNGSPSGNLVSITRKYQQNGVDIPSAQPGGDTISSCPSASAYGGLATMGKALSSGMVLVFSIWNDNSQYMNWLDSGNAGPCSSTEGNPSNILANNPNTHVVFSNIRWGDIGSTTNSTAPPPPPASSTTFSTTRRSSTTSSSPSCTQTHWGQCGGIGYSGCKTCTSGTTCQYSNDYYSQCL
Description: The effect of tannic acid on Trichoderma reesei CEL7B endoglucanase I and Trichoderma reesei CEL5A endoglucanase II was also evaluated using carboxymethylcellulose (CMC) as substrate. The hydrolysis reactions were conducted in duplicate using the “mini-plate-scale” hydrolysis procedure described in Example 33, except that 1 mM tannic acid and 10 to 20 g of carboxymethylcellulose (CMC) and 1 to 20 mg of enzyme per liter 50 mM sodium acetate pH 5.0 were used at 50° C. for 4 hours. Soluble reducing sugars were analyzed by a p-hydroxybenzoic acid hydrazide (PHBAH) assay according to the method of Lever, 1972, Anal. Biochem. 47: 273-279, instead of by HPLC as described in Examples 30 and 33. Reactions without the addition of the enzymes served as controls to correct background absorption. Spectrophotometric measurements were performed using a SPECTRAMAX™ 340PC reader (Molecular Devices Corp., Sunnyvale, Calif., USA) with COSTAR® 96-well microplates (Cole-Parmer Instrument Co, Vernon Hills, Ill., USA).

[2] = biological target: T2, Cellulolytic Enzyme Composition #2; test: PCS hydrolysis by Cellulolytic Enzyme Composition #2 with added compounds; format: biochemical, Trichoderma reesei; details: for Ki: PCS hydrolysis, Cellulolytic Enzyme Composition #2
T2 construct: Dixon plot linear regression intercept (1/Rate); other: PCS; rate from hydrolysis difference (%) at 0 and 5 hours; rate from hydrolysis difference (%); Ki (x-intercept of Dixon plot); other: PCS hydrolysis, Cellulolytic Enzyme Composition #2; OPC flavonol-equivalent; Ki expressed as galloyl constituents; oth; fused on or other part: In one component the Humicola insolens endoglucanase V (CEL45A) core is fused in front of the A. oryzae beta-glucosidase
Description: Corn stover was pretreated at the U.S. Department of Energy National Renewable Energy Laboratory (NREL), […], Colo., USA, using dilute sulfuric acid. The following conditions were used for the pretreatment: 1.4 wt % sulfuric acid at 195° C. for 4.5 minutes. According to limit digestion with excess cellulase enzymes, the water-insoluble solids in the pretreated corn stover (PCS) contained 59.5% cellulose. Prior to use, the PCS was washed with a large volume of deionized water until soluble acid and sugars were removed. The dry weight of the water-washed PCS was 19.16%.
The effect of a mixture of tannic acid, ellagic acid, epicatechin, and six lignin constituent compounds (4-hydroxyl-2-methylbenzoic acid, vanillin, coniferyl alcohol, coniferyl aldehyde, ferulic acid, and syringaldehyde) was determined on the hydrolysis of PCS by Cellulolytic Enzyme Composition #1 or Cellulolytic Enzyme Composition #2. […] Cellulolytic Enzyme Composition #1 or Cellulolytic Enzyme Composition #2 was added at 0.25 g per liter. Reactions without the addition of the compounds served as controls. The capped tubes were incubated at 50° C. in an INNOVA® 4080 incubator shaker (New Brunswick Scientific Co., Inc., Edison, N.J., USA) at 150 rpm.
Aliquots of the suspensions, sampled over time, were filtered by centrifugation using a 0.45 μm MULTISCREEN® HV membrane (Millipore, Billerica, Mass., USA) at 2000 rpm for 15 minutes using a SORVALL® RT7 centrifuge (Thermo Fisher Scientific, Waltham, Mass., USA). When not used immediately, the filtered aliquots were frozen at −20° C. Sugar concentrations of the samples diluted in 0.005 M H2SO4 were measured after elution by 0.005 M H2SO4 at a flow rate of 0.4 ml/minute from a 4.6×250 mm AMINEX® HPX-87H column (Bio-Rad, Hercules, Calif., USA) at 65° C. with quantitation by integration of glucose and cellobiose using refractive index detection (CHEMSTATION®, AGILENT® 1100 HPLC, Agilent Technologies, Santa Clara, Calif., USA) calibrated with standards of glucose and cellobiose. The resultant equivalents were used to calculate the percentage of cellulose conversion for each reaction.
The degree of cellulose conversion to glucose plus cellobiose sugars (conversion, %) was calculated using the following equation:
Conversion(%)=(glucose+cellobiose×1.053)(mg/ml)×100×162/cellulose(mg/ml)×180)=(glucose+cellobiose×1.053)(mg/ml)×100/(cellulose(mg/ml)×1.111)
In this equation the factor 1.111 reflects the weight gain in converting cellulose to glucose, and the factor 1.053 reflects the weight gain in converting cellobiose to glucose. Cellulose in PCS was determined by a limit digest of PCS to release glucose and cellobiose.
Example 30 was repeated except that each compound was tested separately. […] Reactions without the addition of each compound served as controls.
The effect of OPC or flavonol on the hydrolysis of PCS by Cellulolytic Enzyme Composition #1 or Cellulolytic Enzyme Composition #2 was determined according to the procedure described in Example 30. OPC and flavonol were present at a concentration of 1 mM. Reactions without the addition of the compounds served as controls.
The effective inhibitory concentration range for tannic acid and OPC was also determined by the “mini-scale” hydrolysis described in Example 30 with Cellulolytic Enzyme Composition #2. The concentration of tannic acid ranged from 0.1 mM to 1 mM, while the concentration of OPC ranged from 0.1 mM to 10 mM. Reactions without the addition of the tannic compounds served as controls.
However, prior to the addition of Cellulolytic Enzyme Composition #2, the mixture of PCS or OPC and tannic acid was treated with Aspergillus oryzae tannase (Novozymes A/S, Bagsværd, Denmark) at 10% of the final protein level for 30 minutes. Reactions without addition of the tannic acid, OPC, or tannase served as controls.

[3] = biological target: T3, Aspergillus oryzae CEL3A beta-glucosidase (Aspergillus oryzae, UniProt Q2UUD6); test: Cellobiose hydrolysis by CEL3A beta-glucosidase with tannic acid; format: biochemical
T3 construct: made in house
T3 sequence (Q2UUD6 20-861): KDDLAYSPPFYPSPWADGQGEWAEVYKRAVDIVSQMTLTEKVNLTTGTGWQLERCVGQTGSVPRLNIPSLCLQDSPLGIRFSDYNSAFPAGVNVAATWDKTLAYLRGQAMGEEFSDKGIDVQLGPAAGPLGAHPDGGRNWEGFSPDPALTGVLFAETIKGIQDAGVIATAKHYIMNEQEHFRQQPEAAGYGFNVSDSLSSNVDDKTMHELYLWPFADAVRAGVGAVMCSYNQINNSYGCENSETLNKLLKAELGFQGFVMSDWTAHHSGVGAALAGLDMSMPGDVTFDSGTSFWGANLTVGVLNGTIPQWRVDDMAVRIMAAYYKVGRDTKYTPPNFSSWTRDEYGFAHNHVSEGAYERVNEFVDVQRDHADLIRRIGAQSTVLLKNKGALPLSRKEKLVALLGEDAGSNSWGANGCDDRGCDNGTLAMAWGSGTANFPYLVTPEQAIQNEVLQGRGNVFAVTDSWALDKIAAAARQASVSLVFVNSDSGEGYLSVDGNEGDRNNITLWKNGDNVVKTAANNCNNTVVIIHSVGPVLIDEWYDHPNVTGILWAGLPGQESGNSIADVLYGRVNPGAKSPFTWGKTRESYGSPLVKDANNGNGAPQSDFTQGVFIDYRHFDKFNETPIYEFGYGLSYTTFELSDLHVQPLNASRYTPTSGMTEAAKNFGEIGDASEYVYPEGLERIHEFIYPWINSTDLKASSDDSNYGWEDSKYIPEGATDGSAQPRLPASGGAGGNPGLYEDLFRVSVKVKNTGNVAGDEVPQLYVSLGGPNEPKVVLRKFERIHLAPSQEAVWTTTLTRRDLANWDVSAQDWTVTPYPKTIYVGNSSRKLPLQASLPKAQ
Description: The effect of tannic acid on Aspergillus oryzae CEL3A beta-glucosidase was also evaluated using a series of “mini-scale” hydrolysis reactions according to the procedure described in Example 30, except that 1 mM tannic acid (corresponding to 10 mM galloyl and 1 mM glucosyl constituents) and 2 g of cellobiose and 1 mg of beta-glucosidase per liter of 39 mM sodium acetate pH 5.0 were used. Reactions without the addition of the tannic acid served as controls. The reaction was monitored by HPLC as described in Example 30.
Tannic acid was also evaluated in the hydrolysis of cellobiose.

[4] = PCS, rate from hydrolysis difference (%) at 0 and 5 hours

Question: How did the “effect on CMC hydrolysis by CEL7B endoglucanase I” value [1] turn out when `O=C(OC[C@H]1O[C@@H](OC(=O)c2cc(O)c(O)c(OC(=O)c3cc(O)c(O)c(O)c3)c2)[C@H](OC(=O)c2cc(O)c(O)c(OC(=O)c3cc(O)c(O)c(O)c3)c2)[C@@H](OC(=O)c2cc(O)c(O)c(OC(=O)c3cc(O)c(O)c(O)c3)c2)[C@@H]1OC(=O)c1cc(O)c(O)c(OC(=O)c2cc(O)c(O)c(O)c2)c1)c1cc(O)c(O)c(OC(=O)c2cc(O)c(O)c(O)c2)c1` [tannic acid, Tannic acid] was run?
Answer: significantly inhibited

Question: And the Ki ([2]; OPC flavonol-equivalent, read-out: Ki (x-intercept of Dixon plot))?
Answer: ~180 µM

Question: And the Ki ([2]; corresponding galloyl constituents, read-out: Ki expressed as galloyl constituents)?
Answer: 1800 µM

Question: What about the “Dixon plot linear regression intercept (1/Rate)” value [2, 4] of the same molecule?
Answer: 0.018±0.005

Question: And the “Dixon plot linear regression slope (1/Rate vs inhibitor concentration)” value [2, 4]?
Answer: 0.098±0.009

Question: And the “concentration dependence of inhibition of PCS hydrolysis” value ([2]; tannic acid 0.1 mM to 1 mM, OPC 0.1 mM to 10 mM, 43 g PCS and 0.25 g enzyme per liter)?
Answer: increasingly inhibitory

Question: What about the “effect on cellobiose hydrolysis by CEL3A beta-glucosidase” value ([3]; 1 mM tannic acid, 2 g cellobiose and 1 mg beta-glucosidase per liter) of the same molecule?
Answer: significantly inhibited

Question: What about the “type of inhibition, CEL3A beta-glucosidase” value ([3]; cellobiose hydrolysis) of the same molecule?
Answer: mixed

Question: What about the IC50 ([3]; cellobiose hydrolysis, 0.001 g enzyme per liter, pH 5, 50° C., read-out: I50 for CEL3A beta-glucosidase) of the same molecule?
Answer: ~800 µM
